Results on one substance are retold here after patent US20190134120A1, “METHODS FOR THE TREATMENT OF BLADDER CANCER” (Viralytics Limited, priority 2013, published 2019).

Common to all, as to type: cell-based, Human
Assay [1] has as its system 5637 cells. As to the kind of experiment: Synergy between CVA21 and radiotherapy, 5637 cells. The note with it: 5637 cells irradiated (4-10 Gy). As to the method: (§1) Combining CVA21 with the radiotherapy has shown exceptional synergy. When 5637 cells were irradiated (4-10 Gy) then 24 hours later exposed to CVA21 (multiplicities of infection 0.961-12.6), clear synergy was seen (FIG. 3a). […] A comprehensive experimental and analytic method was implemented for this work which allows calculation of combination index values at all data points, and therefore identification of areas of high synergy across the whole response surface (Greco et al. 1995) (FIGS. 3b, 3c).
(§2) In brief, T24/5637 cells were plated at 0.25×10^4/0.5×10^4 cells per well (100 μL) of a 96 well tray and incubated at 37° C. for 24 hrs. Day 2—An extra 100 ul 10% FCS, media was added to the cells. Then they were treated with Rad (Gy 0, 4, 6, 8, 10) on a clinical Varian linear accelerator in St Luke's Cancer Centre, Royal Surrey Hospital UK. Day 2—The plates were returned to the lab and incubated at 37° C. for 24 hrs. Day 3—The medium was removed and 100 ul of CVA21 (MOI 12.5-0.1 in 2% FCS medium) was added and incubated at 37° C. for 72 hrs. Day 6—The medium was removed and 100 μl of fresh 10% FCS medium added and incubated for 24 hrs. Day 7—The medium was removed and 100 μl of diluted MTS reagent (Promega) was added. The plates were then incubated for 1-2 hr and read absorbance at 492 nm. […]

The subject of assay [2] is T24 cells. As to the kind of experiment: Synergy between CVA21 and radiotherapy, T24 cells. On the procedure: as §1, §2
Assay [3] concerns KU19-19 cells. As to the kind of experiment: CVA21 cytotoxicity, KU19-19 cells. To be noted: FIG. 2b.

Turning to Coxsackievirus A21 [CVA21], the “interaction of CVA21 with radiation” value in assay [1] (24 hours later CVA21) is “clear synergy”; in assay [2], “Synergy between radiation and CVA21 was confirmed”. For the same substance, the “combination indices, minima” value in assay [1] (24 hours later exposed to CVA21 (MOI 0.961-12.6), dose matrix analysis) was “approximately 0.4”. The “susceptibility of cell line to CVA21” value in assay [3] was “resistant”.
